The target of one series is VEGFR2 (Homo sapiens (Human), UniProt P35968). Description: VEGF165 induced phosphorylation of VEGFR2 in endothelial cells (TeloHAEC, HTRF). In kind it is cell-based. To be noted: HAEC cells; n = 1 unless otherwise indicated. Background: Time-resolved FRET reads energy transfer from a long-lived donor to a nearby acceptor.
The next series in a line: PAMPA permeability assay. The series is classed as in vitro ADME. To be noted: PAMPA; for recovery at 5 hr, 10 μM: pH 7, PAMPA, donor and acceptor compartments; for Papp at 5 h, 10 μM: pH 7, pH 7, 10 μM.
The subject of a further series is MRC5 cells. Description: Cell viability assay in MRC5 cells (MTT).
The target of series [1] is T1, PDGFRβ (Homo sapiens (Human), UniProt P09619). Description: PDGF-BB induced phosphorylation of PDGFRβ in fibroblasts (MRC5 cells, HTRF). In kind it is cell-based. To be noted: MRC5 cells; n = 1 unless otherwise indicated; read-out: PDGFBB-induced PDGFRβ phosphorylation in MRC5 cells (IC50).
T1 sequence (P09619 33-1106): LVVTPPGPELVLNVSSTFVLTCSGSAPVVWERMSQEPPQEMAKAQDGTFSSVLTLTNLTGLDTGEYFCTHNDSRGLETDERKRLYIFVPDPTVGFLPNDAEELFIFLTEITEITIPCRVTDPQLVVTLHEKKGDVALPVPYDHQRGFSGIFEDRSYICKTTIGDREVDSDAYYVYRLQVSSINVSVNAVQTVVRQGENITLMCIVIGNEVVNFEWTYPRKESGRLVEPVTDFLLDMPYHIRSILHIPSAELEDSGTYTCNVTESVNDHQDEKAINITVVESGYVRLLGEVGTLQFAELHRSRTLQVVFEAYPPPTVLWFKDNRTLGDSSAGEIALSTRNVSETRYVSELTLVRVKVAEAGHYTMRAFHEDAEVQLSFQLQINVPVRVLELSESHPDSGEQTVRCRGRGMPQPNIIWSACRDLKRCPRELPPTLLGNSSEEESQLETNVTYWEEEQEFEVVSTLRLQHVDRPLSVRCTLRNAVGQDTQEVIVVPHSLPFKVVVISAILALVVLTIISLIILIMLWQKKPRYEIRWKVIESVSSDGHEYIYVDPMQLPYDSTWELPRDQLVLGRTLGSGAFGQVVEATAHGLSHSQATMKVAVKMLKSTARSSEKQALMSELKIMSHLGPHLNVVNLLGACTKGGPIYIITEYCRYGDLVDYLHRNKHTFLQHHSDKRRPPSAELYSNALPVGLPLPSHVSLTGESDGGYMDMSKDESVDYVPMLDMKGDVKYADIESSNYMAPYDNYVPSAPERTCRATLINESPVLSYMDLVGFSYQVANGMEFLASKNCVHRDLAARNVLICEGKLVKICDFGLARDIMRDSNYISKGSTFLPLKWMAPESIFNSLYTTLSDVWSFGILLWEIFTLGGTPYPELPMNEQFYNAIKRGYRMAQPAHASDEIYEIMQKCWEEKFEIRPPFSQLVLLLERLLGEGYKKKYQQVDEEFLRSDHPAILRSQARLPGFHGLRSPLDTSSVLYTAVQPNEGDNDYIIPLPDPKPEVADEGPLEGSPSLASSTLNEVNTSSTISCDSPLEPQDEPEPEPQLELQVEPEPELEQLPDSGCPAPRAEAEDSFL
For series [2], the target named is T1, PDGFRβ. Description: Duration of action (washout) against PDGF-BB induced phosphorylation of PDGFRβ in human fetal lung fibroblast cells. In kind it is cell-based. The settings on record: MRC-5 cells.
A short description of series [3]: Pharmacokinetic measurements in rats (intravenous and intra-tracheal dosing). The series is classed as in vivo. The settings on record: rat; for concentration at 0.1 h / concentration at 1.5 h / concentration at 24 h: lung, read-out: lung concentration (nM) at time (h); for Kp at 0.1 h / Kp at 1.5 h / Kp at 24 h: lung/plasma.
A short description of series [4]: Pharmacokinetic measurements in mice (intravenous and intra-nasal dosing). The series is classed as in vivo. The settings on record: mouse; for concentration at 6 h / concentration at 0.1 h / concentration at 1.5 h / concentration at 24 h / Kp at 6 h / Kp at 0.1 h / Kp at 1.5 h: male, C57BL/6J; for concentration at 6 h / concentration at 0.1 h / concentration at 1.5 h / concentration at 24 h: lung, read-out: lung concentration (nM) at time (h); for concentration at 6 h / concentration at 0.1 h / concentration at 1.5 h / concentration at 24 h / BAV (%): mean; for Kp at 6 h / Kp at 0.1 h / Kp at 1.5 h: lung/plasma.

Series [5] concerns the target T1, PDGFRβ. To be noted: read-out: Ki PDGFRβ; mean, n = 2 unless otherwise indicated.

SMILES strings stand for the structures. Like-named read-outs stand apart in the source and are kept apart here.

As a reminder, the IC50 is the concentration that gives 50% inhibition. Broadly, the Papp is the rate of passage across a membrane or cell layer, normalised by area and donor concentration. Low readings indicate poor permeation, high ones ready permeation. Broadly, the MRT is a mean duration of stay, worked out from the concentration-time curve. Broadly, the clearance is a measure of how efficiently the substance is removed, as volume per time. What is called Ki is the equilibrium dissociation constant of an inhibitor or competing ligand from its target.

Sequence of VEGFR2 (P35968 20-1356): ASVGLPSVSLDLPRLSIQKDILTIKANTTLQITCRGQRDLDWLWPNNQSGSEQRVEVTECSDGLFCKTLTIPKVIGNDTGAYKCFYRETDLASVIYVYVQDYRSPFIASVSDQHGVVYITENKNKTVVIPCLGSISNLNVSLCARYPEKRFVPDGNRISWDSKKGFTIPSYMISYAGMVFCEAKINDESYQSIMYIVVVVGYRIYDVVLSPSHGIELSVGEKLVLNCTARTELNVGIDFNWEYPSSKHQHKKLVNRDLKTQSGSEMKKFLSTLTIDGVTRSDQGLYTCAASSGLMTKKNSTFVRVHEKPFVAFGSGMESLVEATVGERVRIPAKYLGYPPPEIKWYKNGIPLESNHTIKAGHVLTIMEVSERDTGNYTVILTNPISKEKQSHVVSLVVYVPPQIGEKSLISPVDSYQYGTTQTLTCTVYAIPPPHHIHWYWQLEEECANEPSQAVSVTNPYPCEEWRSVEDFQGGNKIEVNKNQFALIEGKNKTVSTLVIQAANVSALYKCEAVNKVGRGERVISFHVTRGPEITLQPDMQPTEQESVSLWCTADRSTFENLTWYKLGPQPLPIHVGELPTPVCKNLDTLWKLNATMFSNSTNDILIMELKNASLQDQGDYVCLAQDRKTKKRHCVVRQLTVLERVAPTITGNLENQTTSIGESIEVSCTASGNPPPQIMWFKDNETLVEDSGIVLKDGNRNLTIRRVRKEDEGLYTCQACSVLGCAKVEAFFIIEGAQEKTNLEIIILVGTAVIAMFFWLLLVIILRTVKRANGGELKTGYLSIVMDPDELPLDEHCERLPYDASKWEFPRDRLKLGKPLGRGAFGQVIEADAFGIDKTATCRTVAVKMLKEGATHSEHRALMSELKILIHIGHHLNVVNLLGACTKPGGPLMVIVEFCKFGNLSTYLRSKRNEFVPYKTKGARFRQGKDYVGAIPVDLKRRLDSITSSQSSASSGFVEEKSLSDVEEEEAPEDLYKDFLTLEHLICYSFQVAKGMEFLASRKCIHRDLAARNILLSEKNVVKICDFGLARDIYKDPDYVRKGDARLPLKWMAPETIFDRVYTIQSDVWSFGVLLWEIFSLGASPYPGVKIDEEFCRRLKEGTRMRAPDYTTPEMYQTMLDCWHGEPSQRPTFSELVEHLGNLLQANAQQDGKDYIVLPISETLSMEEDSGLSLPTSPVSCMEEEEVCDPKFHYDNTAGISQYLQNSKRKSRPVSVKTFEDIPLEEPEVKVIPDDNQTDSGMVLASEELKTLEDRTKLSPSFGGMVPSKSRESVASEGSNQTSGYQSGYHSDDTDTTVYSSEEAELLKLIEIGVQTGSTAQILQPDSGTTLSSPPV

For the compound `COC(=O)c1cc2c(cc1C)/C(=C(/Nc1ccc(C(=O)NOCCCN3CCN(C)CC3)cc1)c1ccccc1)C(=O)N2` [Example 64], half-maximal inhibition at VEGFR2 (IC50) was put at 32.2 nM. In “PAMPA permeability assay”, this compound showed a recovery at 5 hr, 10 μM of 59.4% and a Papp at 5 h, 10 μM of 0.0679 ×10⁻⁶ cm/s. Moreover, in the series on MRC5 cells, the “Cell viability at 100 nM (%)” value is 86.5%, the “Cell viability at 300 nM (%)” value is on record as 88.6% and the “Cell viability at 1000 nM (%)” value turned out to be 73.7%.
`COC(=O)c1cc2c(cc1C)/C(=C(/Nc1ccc(C(=O)NOCCN3CCN(C)CC3)cc1)c1ccccc1)C(=O)N2` [Example 6, (Z)-Methyl 5-methyl-3-(((4-((2-(4-methylpiperazin-1-yl)ethoxy)carbamoyl)phenyl)amino)(phenyl)methylene)-2-oxoindoline-6-carboxylate]: on PDGFRβ [1], the IC50 was 6.95 nM. In addition, the “% phos: percentage phosphorylation after wash-out relative to maximal phosphorylation (100%)” value on PDGFRβ [2] (after wash-out, rhuPDGF-BB, experiments in Groups 1-4) was found to be 31.6%. The “Duration of action as inhibitors of PDGFRβ compared with nintedanib” value on PDGFRβ [2] (wash-out) is given as “longer duration of action”. The recovery at 5 hr, 10 μM in the series “PAMPA permeability assay” was 42%. Moreover, the Papp at 5 h, 10 μM in the series “PAMPA permeability assay” is 0.00649 ×10⁻⁶ cm/s. Besides, the concentration at 0.1 h worked out at 2990 nM in series [3] (male, CD, iv, i.v. dosing, 0.1 h); 30400 nM in series [3] (male, CD, other: intra-tracheal, i.t. dosing, 0.1 h); 580 nM in series [4] (iv, i.v. dosing, 0.1 h); 1490 nM in series [4] (other: intra-nasal, i.n. dosing, 0.1 h). Besides, the concentration at 1.5 h in series [3] (male, CD, iv, i.v. dosing, 1.5 h) is 1880 nM; in series [3] (male, CD, other: intra-tracheal, i.t. dosing, 1.5 h), 11900 nM; in series [4] (iv, i.v. dosing, 1.5 h) it was 168 nM; in series [4] (other: intra-nasal, i.n. dosing, 1.5 h), 986 nM. The concentration at 24 h was 173 nM in series [3] (male, CD, iv, i.v. dosing, 24 h); 4720 nM in series [3] (male, CD, other: intra-tracheal, i.t. dosing, 24 h); 13 nM in series [4] (iv, i.v. dosing, 24 h); 84 nM in series [4] (other: intra-nasal, i.n. dosing, 24 h). The Kp at 0.1 h in series [3] (male, CD, iv, i.v. dosing, 0.1 h, read-out: lung/plasma ratio at time(h)) was determined as 103; in series [3] (male, CD, other: intra-tracheal, i.t. dosing, 0.1 h, read-out: lung/plasma conc ratio at time(h)), 288; in series [4] (iv, i.v. dosing, 0.1 h, read-out: lung/plasma ratio at time(h)), 11; in series [4] (other: intra-nasal, i.n. dosing, 0.1 h, read-out: lung/plasma conc ratio at time(h)) it was 79. Besides, the Kp at 1.5 h in series [3] (male, CD, iv, i.v. dosing, 1.5 h, read-out: lung/plasma ratio at time(h)) came to 315; in series [3] (male, CD, other: intra-tracheal, i.t. dosing, 1.5 h, read-out: lung/plasma conc ratio at time(h)), 2890; in series [4] (iv, i.v. dosing, 1.5 h, read-out: lung/plasma ratio at time(h)) it was 40; in series [4] (other: intra-nasal, i.n. dosing, 1.5 h, read-out: lung/plasma conc ratio at time(h)), 398. Moreover, the Kp at 24 h amounted to 198 in series [3] (male, CD, iv, i.v. dosing, 24 h, read-out: lung/plasma ratio at time(h)) and 3280 in series [3] (male, CD, other: intra-tracheal, i.t. dosing, 24 h, read-out: lung/plasma conc ratio at time(h)). Besides, the mean residence time (MRT) in series [3] (male, CD, plasma, iv, i.v. dosing) was found to be 7.9 h. For the same compound, in series [3] (male, CD, plasma, iv, i.v. dosing (i.v. dose 0.1-0.5 per compound)), the clearance was determined as 132 mL/min/kg. The Vd in series [3] (male, CD, plasma, iv, i.v. dosing, read-out: Vss) came to 63 L/kg. Besides, in series [3] (male, CD, plasma, iv, i.v. dosing, read-out: t½ (converted)), the half-life is 8.1 h. Also, the “Lung conc i.t./i.v. Ratio at time (h)” value in series [3] (0.1 h) is 10.2; in series [3] (1.5 h), 6.3; in series [3] (24 h), 27.3. In addition, the “i.t. BAV (%)” value in series [3] (i.t. dosing (i.t. dose 0.1-0.5 per compound)) was 115%. The “BAL % administered dose at time (h)” value in series [3] (i.t. dosing, 0.1 h) is on record as 6%; in series [3] (i.t. dosing, 1.5 h), 3%; in series [3] (i.t. dosing, 24 h), 0.1%; in series [3] (i.v. dosing, 0.1 h), 0.06%; in series [3] (i.v. dosing, 1.5 h) it was 0.03%; in series [3] (i.v. dosing, 24 h), “BQL”. In addition, the “BAL % administered dose at time (h)” value turned out to be 1% in series [4] (i.n. dosing, 0.1 h); 0.3% in series [4] (i.n. dosing, 1.5 h); 0.1% in series [4] (i.n. dosing, 6 h); 0.04% in series [4] (i.n. dosing, 24 h); 0.1% in series [4] (i.v. dosing, 0.1 h); 0.01% in series [4] (i.v. dosing, 1.5 h). Also, the “Oral BAV (%)” value in series [3] (oral dose 3 mg/kg) is on record as below 1%. In addition, the concentration at 6 h was determined as 46 nM in series [4] (iv, 0.2 mg/kg, i.v. dosing, 6 h) and 258 nM in series [4] (other: intra-nasal, i.n. dosing, 6 h). In addition, the Kp at 6 h turned out to be 65 in series [4] (iv, 0.2 mg/kg, i.v. dosing, 6 h, read-out: lung/plasma ratio at time(h)) and 607 in series [4] (other: intra-nasal, i.n. dosing, 6 h, read-out: lung/plasma conc ratio at time(h)). The “Lung conc i.n./i.v. Ratio at time (h)” value in series [4] (0.1 h) was found to be 2.6; in series [4] (1.5 h), 5.9; in series [4] (6 h) it was 5.6; in series [4] (24 h), 6.5. The “BAV (%)” value in series [4] (i.n. dosing (i.n. dose 1 nintedanib, 0.2 examples)) was around 50%; in series [4] (oral dosing (oral dose 60 mg/kg nintedanib, 10 mg/kg examples)) it was below 5%. Moreover, the Ki at PDGFRβ [5] was 8.31 nM. For the same compound, the “Cell viability at 100 nM (%)” value in the series with MRC5 cells is 98.1%. Moreover, the “Cell viability at 300 nM (%)” value with MRC5 cells turned out to be 88.5%. Besides, the “Cell viability at 1000 nM (%)” value with MRC5 cells was determined as 77%.
For `COC(=O)c1ccc2c(c1)NC(=O)/C2=C(\Nc1ccc(C(=O)N(C)OC)cc1)c1ccccc1` [Example 1, (Z)-Methyl 3-(((4-(methoxy(methyl)carbamoyl)phenyl)amino)(phenyl)methylene)-2-oxoindoline-6-carboxylate], the IC50 on VEGFR2 worked out at 32.2 nM. In addition, in the series with MRC5 cells, the “Cell viability at 100 nM (%)” value was 116.6%, the “Cell viability at 300 nM (%)” value was 97 (n = 2) % and the “Cell viability at 1000 nM (%)” value is on record as 87 (n = 2) %.

These data come from patent US11046672B2, “Indolinones compounds and their use in the treatment of fibrotic diseases” (RESPIVERT LIMITED, priority 2015, dated 2021).
